# Measurements from patent US6527981B1, “Azole/amine oxide preservatives” (Lonza Inc., priority 1999, dated 2003).
# Read-outs that look alike come from different tables or passages of the source.
# Legend:
# [1] = system: G. trabeum (brown rot fungi); experiment: agar dilution plate method, wood rot fungi (MIC, IC50, percent retardation); assay type: cell-based; conditions: for MIC: Gloeophyllum trabeum; for G. trabeum IC50: Table2D curve fitting
# [2] = system: T. versicolor (white rot fungi); experiment: as above; assay type: cell-based; conditions: for MIC: Trametes versicolor; for T. versicolor IC50: Table2D curve fitting
# [3] = cited from earlier work; for Solubility in Water^b: Material Safety Data Sheet; for Solubility in water^a: The Pesticide Manual, 11th Edition
# [4] = system: C. globosum (soft rot decay fungi); experiment: agar dilution plate method, wood rot fungi (MIC, IC50, percent retardation); assay type: cell-based; conditions: for MIC: Chaetomium globosum; for C. globosum IC50: Table2D curve fitting
# [5] = system: P. placenta (brown rot fungi); experiment: as above; assay type: cell-based; conditions: for P. placenta IC50: Table2D curve fitting
# [6] = azole alone, read-out: G. trabeum MIC
# [7] = azole alone, read-out: T. versicolor MIC
# [8] = azole alone, read-out: C. globosum MIC
# [9] = azole alone, read-out: P. placenta MIC
# [10] = amine oxide alone, 100% growth retardation, read-out: MIC (ppm of amine oxides) G. trabeum
# [11] = amine oxide alone, 100% growth retardation, read-out: MIC (ppm of amine oxides) T. versicolor
# [12] = amine oxide alone, 100% growth retardation, read-out: MIC (ppm of amine oxides) P. placenta
# [13] = amine oxide alone, 100% growth retardation
structure (smiles),measurement,setting,value
"CCCCC(C#N)(Cn1cncn1)c1ccc(Cl)cc1 (stereo not drawn) [Myclobutanil, myclobutanil]",MIC,[1]; [6],> 50 µg/mL
same,G. trabeum IC50,[1]; azole alone,4.3 ppm
same,MIC,[2]; [7],50 µg/mL
same,T. versicolor IC50,[2]; azole alone,6 ppm
same,Solubility in Water^b,[3]; 25° C.,142 ppm at 25 °C
same,Solubility in water^a,[3]; 25° C.,142 ppm/25 °C
same,MIC,[4]; [8],> 50 µg/mL
same,P. placenta IC50,[5]; azole alone,13 ppm
same,MIC,[5]; [9],50 µg/mL
"CC(C)(C)C(O)(CCc1ccc(Cl)cc1)Cn1cncn1 (stereo not drawn) [Tebuconazole, tebuconazole]",MIC,[1]; [6],10 µg/mL
same,"Qb, concentration of azole alone required to yield 100% retardation, G. trabeum",[1]; azole alone,10 ppm
same,G. trabeum IC50,[1]; azole alone,<0.1 ppm
same,MIC,[2]; [7],25 µg/mL
same,"Qb, concentration of azole alone required to yield 100% retardation, T. versicolor",[2]; azole alone,25 ppm
same,T. versicolor IC50,[2]; azole alone,2.3 ppm
same,Solubility in Water^b,[3]; 20° C.,32 ppm at 20 °C
same,MIC,[4]; [8],50 to 500 µg/mL
same,C. globosum IC50,[4]; azole alone,34.5 ppm
same,"Qb, concentration of azole alone required to yield 100% retardation, P. placenta",[5]; azole alone,50 ppm
same,P. placenta IC50,[5]; azole alone,1.7 ppm
same,MIC,[5]; [9],50 µg/mL
"CC(C)(C)C(=O)C(Oc1ccc(Cl)cc1)n1cncn1 (stereo not drawn) [Triadimefon, triadimefon]",Solubility in Water^b,[3]; 20° C.,64 ppm at 20 °C
same,Solubility in water^a,[3]; 20° C.,64 ppm/20 °C
"CCCCCCCCCCCC[N+](C)(C)[O-] [Dodecyl-DMAO, dodecyldimethylamine oxide]",MIC,[1]; [10],250 µg/mL
same,"Qa, concentration of amine oxide alone required to yield 100% retardation, G. trabeum",[1]; amine oxide alone,250 ppm
same,MIC,[2]; [11],250 µg/mL
same,"Qa, concentration of amine oxide alone required to yield 100% retardation, T. versicolor",[2]; amine oxide alone,250 ppm
same,MIC,[4]; read-out: MIC (ppm of amine oxides) C. globosum,> 1000 µg/mL
same,"Qa, concentration of amine oxide alone required to yield 100% retardation, P. placenta",[5]; amine oxide alone,250 ppm
same,MIC,[5]; [12],250 µg/mL
CCCCCCCC/C=C\CCCCCCCC[N+](C)(C)[O-] [Oleyl-DMAO],MIC (ppm of amine oxides) G. trabeum,[1]; [13],>1000 ppm
same,MIC (ppm of amine oxides) T. versicolor,[2]; [13],>1000 ppm
same,MIC (ppm of amine oxides) C. globosum,[4]; [13],>1000 ppm
same,MIC (ppm of amine oxides) P. placenta,[5]; [13],>1000 ppm
"N#CC(CCc1ccc(Cl)cc1)(Cn1cncn1)c1ccccc1 (stereo not drawn) [Fenbuconazole, fenbuconazole]",MIC,[1]; [6],50 µg/mL
same,G. trabeum IC50,[1]; azole alone,0.3 ppm
same,MIC,[2]; [7],25 µg/mL
same,T. versicolor IC50,[2]; azole alone,1.1 ppm
same,Solubility in Water^b,[3]; 25° C.,4 ppm at 25 °C
same,Solubility in water^a,[3]; 25° C.,0.2 ppm/25 °C
same,MIC,[4]; [8],50 µg/mL
same,C. globosum IC50,[4]; azole alone,10.7 ppm
same,P. placenta IC50,[5]; azole alone,3.9 ppm
same,MIC,[5]; [9],25 µg/mL
"CCCCCCCCCCCCCC[N+](C)(C)[O-] [Tetradecyl-DMAO, tetradecyl dimethylamine oxide]",MIC,[1]; [10],> 1000 µg/mL
same,"Qa, concentration of amine oxide alone required to yield 100% retardation, G. trabeum",[1]; amine oxide alone,1000 ppm
same,MIC,[2]; [11],> 1000 µg/mL
same,"Qa, concentration of amine oxide alone required to yield 100% retardation, T. versicolor",[2]; amine oxide alone,1000 ppm
same,MIC,"[4]; amine oxide alone, 100% growth retardation, read-out: MIC (ppm of amine oxides) C. globosum",> 1000 µg/mL
same,"Qa, concentration of amine oxide alone required to yield 100% retardation, P. placenta",[5]; amine oxide alone,1000 ppm
same,MIC,[5]; [12],> 1000 µg/mL
